# Test results as given in ChEMBL document CHEMBL1125985, “Tubulin binding of conformationally restricted bis-aryl compounds” (Bioorg Med Chem Lett, 1991).
# Molecular target: Tubulin (Bos taurus, UniProt Q6B856+Q862L2+Q862F3)
# Assay: In vitro inhibition of purified bovine brain tubulin polymerisation in the absence of microtubule-associated proteins.
row,Structure (SMILES),IC50
1,COc1cc2c(c(OC)c1OC)C(c1ccc3c(c1)OCO3)CC2 (stereo unspecified),> 0.0002 M
2,COc1cc2c(c(OC)c1OC)C(c1ccc3c(c1)OCO3)CCC2 (stereo unspecified),> 0.0002 M
3,COc1cc2c(cc1O)CCCc1cc(OC)c(OC)c(OC)c1-2,5.3e-06 M
4,COc1ccc(-c2ccc(OC)c(=O)cc2)c(OC)c1OC,7.5e-06 M
5,COc1cc2c(cc1O)CCc1cc(OC)c(OC)c(OC)c1-2,0.000104 M
6,COc1cc2c(cc1O)CCCCc1cc(OC)c(OC)c(OC)c1-2,> 0.000125 M
7,COc1cc(C2CCCc3cc4c(cc32)OCO4)cc(OC)c1OC (stereo unspecified),2.4e-06 M
8,COc1ccc(-c2ccc3c(c2)OCO3)c(OC)c1OC,0.00015 M
9,COc1cc(C2CCc3cc4c(cc32)OCO4)cc(OC)c1OC (stereo unspecified),0.000012 M

# Now from value to compound:
row,IC50,Structure (SMILES)
1,1.5e-06 M,COc1ccc(Cc2cc(OC)c(OC)c(OC)c2)cc1O
2,5.8e-06 M,COc1ccc(CCCCc2cc(OC)c(OC)c(OC)c2)cc1O
3,2.4e-06 M,COc1ccc(CCCc2cc(OC)c(OC)c(OC)c2)cc1O
4,1.4e-06 M,COc1ccc(CCc2cc(OC)c(OC)c(OC)c2)cc1O
5,0.000098 M,COc1cc(-c2ccc(OC)c(OC)c2OC)ccc1O
6,5e-06 M,COc1ccc(CC(OC(C)=O)c2cc(OC)c(OC)c(OC)c2)cc1O (stereo unspecified)
7,0.000067 M,COc1cc(Cc2ccc3c(c2)OCO3)cc(OC)c1OC
